Measured values as given in ChEMBL document CHEMBL1201862, “PubChem BioAssay data set” (2004).
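Cells were grown in 96-well plates and exposed to each compound for 48 hours at five concentrations; endpoints were interpolated linearly between bracketing concentrations, or set to the highest concentration if not reached. Here, GI50 denotes the concentration required for 50% inhibition of growth.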 Activity calls are given as the source filed them. No stated cut-off is given here; in the data, active = GI50 up to about 1.1 µM and inactive = higher.

Columns and labels:
Test in all cases: growth of human tumour cells (NCI), 48 h
UO-31 = system: UO-31
MDA-N = system: MDA-N
HCT-116 = system: HCT-116
SK-MEL-28 = system: SK-MEL-28
A498 = system: A498
NCI-H226 = system: NCI-H226
NCI-H23 = system: NCI-H23
CAKI-1 = system: CAKI-1
Malme-3M = system: Malme-3M
MOLT-4 = system: MOLT-4
SNB-19 = system: SNB-19
SF-295 = system: SF-295
COLO 205 = system: COLO 205
786-0 = system: 786-0
OVCAR-4 = system: OVCAR-4
T47D = system: T47D
IGROV-1 = system: IGROV-1
Hs-578T = system: Hs-578T
NCI/ADR-RES = system: NCI/ADR-RES
MCF7 = system: MCF7

SMILES	GI50 (UO-31)	GI50 (MDA-N)	GI50 (HCT-116)	GI50 (SK-MEL-28)	GI50 (A498)	GI50 (NCI-H226)	GI50 (NCI-H23)	GI50 (CAKI-1)	GI50 (Malme-3M)	GI50 (MOLT-4)	GI50 (SNB-19)	GI50 (SF-295)	GI50 (COLO 205)	GI50 (786-0)	GI50 (OVCAR-4)	GI50 (T47D)	GI50 (IGROV-1)	GI50 (Hs-578T)	GI50 (NCI/ADR-RES)	GI50 (MCF7)
Nc1ccc(N(S(=O)(=O)c2ccccc2)S(=O)(=O)c2ccccc2)c(Cl)c1	> 100 µM (inactive)	28.9 µM (inactive)	55.2 µM (inactive)	68.9 µM (inactive)	25.2 µM (inactive)	73.5 µM (inactive)	55.8 µM (inactive)	47.3 µM (inactive)	42.5 µM (inactive)	14.2 µM (inactive)	> 100 µM (inactive)	32.2 µM (inactive)	21 µM (inactive)	81.1 µM (inactive)	75.3 µM (inactive)	48.1 µM (inactive)	62.1 µM (inactive)	64 µM (inactive)	40.2 µM (inactive)	39.3 µM (inactive)
CC(=O)OCC1OC(n2c(S)nc(-c3ccccc3)c(C#N)c2=O)C(OC(C)=O)C(OC(C)=O)C1OC(C)=O (stereo not given)	> 100 µM (inactive)	> 100 µM (inactive)	> 100 µM (inactive)	> 100 µM (inactive)	> 100 µM (inactive)	> 100 µM (inactive)	> 100 µM (inactive)	> 100 µM (inactive)	> 100 µM (inactive)	> 100 µM (inactive)	> 100 µM (inactive)	> 100 µM (inactive)	> 100 µM (inactive)	> 100 µM (inactive)	> 100 µM (inactive)	> 100 µM (inactive)	> 100 µM (inactive)	> 100 µM (inactive)	> 100 µM (inactive)	> 100 µM (inactive)
CCOC(=O)C(=Cn1c(=S)[nH]c2ccc([N+](=O)[O-])cc21)C(=O)OCC	87.9 µM (inactive)	> 100 µM (inactive)	> 100 µM (inactive)	> 100 µM (inactive)	> 100 µM (inactive)	39.8 µM (inactive)	> 100 µM (inactive)	> 100 µM (inactive)	> 100 µM (inactive)	> 100 µM (inactive)	> 100 µM (inactive)	> 100 µM (inactive)	> 100 µM (inactive)	> 100 µM (inactive)	> 100 µM (inactive)	59.6 µM (inactive)	> 100 µM (inactive)	90.4 µM (inactive)	> 100 µM (inactive)	> 100 µM (inactive)
CCOC(=O)C1(C/C=C/CBr)CCc2ccccc2C1=O (stereo not given)	14.3 µM (inactive)	14.4 µM (inactive)	13.3 µM (inactive)	17.5 µM (inactive)	18.5 µM (inactive)	6.95 µM (inactive)	16.8 µM (inactive)	15.1 µM (inactive)	19.1 µM (inactive)	9.1 µM (inactive)	14.4 µM (inactive)	17.3 µM (inactive)	17.2 µM (inactive)	16.2 µM (inactive)	13.6 µM (inactive)	14.3 µM (inactive)	11.1 µM (inactive)	30.8 µM (inactive)	22 µM (inactive)	7.89 µM (inactive)
OC1CCCCCCCCCCC1SCCCCl (stereo not given)	> 100 µM (inactive)	> 100 µM (inactive)	> 100 µM (inactive)	> 100 µM (inactive)	> 100 µM (inactive)	> 100 µM (inactive)	> 100 µM (inactive)	> 100 µM (inactive)	81.8 µM (inactive)	> 100 µM (inactive)	> 100 µM (inactive)	> 100 µM (inactive)	> 100 µM (inactive)	> 100 µM (inactive)	> 100 µM (inactive)	> 100 µM (inactive)	> 100 µM (inactive)	> 100 µM (inactive)	> 100 µM (inactive)	> 100 µM (inactive)
O=C1/C(=C/c2cccnc2)C(n2cccc2)c2c(Br)sc(Br)c21 (stereo not given)	1.78 µM (inactive)	2.05 µM (inactive)	2.26 µM (inactive)	2.53 µM (inactive)	16.6 µM (inactive)	41.3 µM (inactive)	2.52 µM (inactive)	2.59 µM (inactive)	3.01 µM (inactive)	2.19 µM (inactive)	4.7 µM (inactive)	15.2 µM (inactive)	6.64 µM (inactive)	2.55 µM (inactive)	2.07 µM (inactive)	2.82 µM (inactive)	1.58 µM (inactive)	2.94 µM (inactive)	7.43 µM (inactive)	1.8 µM (inactive)
COC(=O)C1(O)C(c2ccccc2)NC2(C)CCCC21 (stereo not given)	> 100 µM (inactive)	> 100 µM (inactive)	> 100 µM (inactive)	> 100 µM (inactive)	> 100 µM (inactive)	> 100 µM (inactive)	> 100 µM (inactive)	> 100 µM (inactive)	> 100 µM (inactive)	> 100 µM (inactive)	> 100 µM (inactive)	> 100 µM (inactive)	> 100 µM (inactive)	> 100 µM (inactive)	> 100 µM (inactive)	> 100 µM (inactive)	> 100 µM (inactive)	> 100 µM (inactive)	> 100 µM (inactive)	> 100 µM (inactive)
CCN(CC)C(=O)N[C@@H](Cc1ccccc1)C(=O)NC	> 100 µM (inactive)	> 100 µM (inactive)	> 100 µM (inactive)	> 100 µM (inactive)	> 100 µM (inactive)	> 100 µM (inactive)	> 100 µM (inactive)	> 100 µM (inactive)	> 100 µM (inactive)	> 100 µM (inactive)	> 100 µM (inactive)	> 100 µM (inactive)	> 100 µM (inactive)	> 100 µM (inactive)	> 100 µM (inactive)	> 100 µM (inactive)	> 100 µM (inactive)	> 100 µM (inactive)	> 100 µM (inactive)	> 100 µM (inactive)
CCOC(=O)CCC(NC(=O)c1ccc(Nc2nc3ccccc3nc2-c2cccs2)cc1)C(=O)OCC (stereo not given)	30.9 µM (inactive)	20.6 µM (inactive)	28.4 µM (inactive)	26.3 µM (inactive)	21.7 µM (inactive)	26.6 µM (inactive)	32.3 µM (inactive)	29.8 µM (inactive)	24.1 µM (inactive)	7.98 µM (inactive)	29.2 µM (inactive)	19.4 µM (inactive)	25.2 µM (inactive)	32.4 µM (inactive)	23.9 µM (inactive)	12 µM (inactive)	28 µM (inactive)	23 µM (inactive)	21.3 µM (inactive)	26.9 µM (inactive)
N#CCCCCC12C3C(=O)N(c4ccccc4)C(=O)C3ON1O[C@@H]1C(=O)N(c3ccccc3)C(=O)[C@@H]12 (stereo not given in full)	> 100 µM (inactive)	> 100 µM (inactive)		> 100 µM (inactive)	> 100 µM (inactive)	> 100 µM (inactive)	> 100 µM (inactive)	> 100 µM (inactive)	> 100 µM (inactive)	> 100 µM (inactive)	> 100 µM (inactive)	> 100 µM (inactive)	> 100 µM (inactive)	> 100 µM (inactive)	> 100 µM (inactive)	> 100 µM (inactive)	> 100 µM (inactive)	> 100 µM (inactive)	> 100 µM (inactive)	> 100 µM (inactive)
CC(CC(=O)O)(CC(=O)O)c1ccccc1	> 100 µM (inactive)	> 100 µM (inactive)	> 100 µM (inactive)	> 100 µM (inactive)	> 100 µM (inactive)	> 100 µM (inactive)	> 100 µM (inactive)	> 100 µM (inactive)	> 100 µM (inactive)		> 100 µM (inactive)	> 100 µM (inactive)	> 100 µM (inactive)	> 100 µM (inactive)	> 100 µM (inactive)	> 100 µM (inactive)	> 100 µM (inactive)	> 100 µM (inactive)	> 100 µM (inactive)	> 100 µM (inactive)
CCCCCC(=O)OCC1(CO)C/C(=C/CC(C(C)C)C(C)C)C(=O)O1 (stereo not given)	17.2 µM (inactive)	34 µM (inactive)	27.7 µM (inactive)	> 75 µM (inactive)	> 75 µM (inactive)	> 75 µM (inactive)	> 75 µM (inactive)	19.9 µM (inactive)	24.3 µM (inactive)		63.1 µM (inactive)	51.1 µM (inactive)	26.5 µM (inactive)	30.8 µM (inactive)	53.2 µM (inactive)	52.6 µM (inactive)	17.8 µM (inactive)	33.3 µM (inactive)	> 75 µM (inactive)	40.9 µM (inactive)
C=C1C(=O)O[C@H]2[C@H]1CC(=O)/C(C)=C/CC[C@@]1(C)O[C@@H]21	0.879 µM (active)	0.259 µM (active)	0.719 µM (active)	0.603 µM (active)	1.64 µM (inactive)	4.26 µM (inactive)	1.67 µM (inactive)	0.53 µM (active)	1.25 µM (inactive)		3.2 µM (inactive)	16.2 µM (inactive)	0.255 µM (active)	0.582 µM (active)	2.93 µM (inactive)	1.12 µM (active)	2.04 µM (inactive)	2.4 µM (inactive)	1.4 µM (inactive)	0.392 µM (active)
O=[N+]([O-])c1cccc2nccc(NCC(O)CO)c12 (stereo not given)	18.2 µM (inactive)	17.1 µM (inactive)	13.4 µM (inactive)	15.7 µM (inactive)	7.66 µM (inactive)	12.2 µM (inactive)	16 µM (inactive)	16 µM (inactive)	14.4 µM (inactive)	9.55 µM (inactive)		21 µM (inactive)	15 µM (inactive)	18 µM (inactive)	18.5 µM (inactive)	24.2 µM (inactive)	16.1 µM (inactive)	7.8 µM (inactive)	25.5 µM (inactive)	13.9 µM (inactive)
